Assay results from patent US10640492B2, “Tubulin inhibitor” (SHENZHEN NEPTUNUS PHARMACEUTICAL RESEARCH INSTITUTE CO., …, priority 2016, dated 2020).
Values belong to the compound of their own block, whether it stands above or below them.

Tests used:
[1] = system: drug-resistant MES-SA cells (p-glycoprotein induced); assay: Inhibitory effect on tumor proliferation, drug-resistant MES-SA transplanted tumor; assay type: in vivo; details: drug-resistant MES-SA nude mice, dose that does not reduce body weight, vs blank vehicle (FIG. 1)
Procedure: MES-SA cells (derived from ATCC) were cultured in low concentration of adriamycin for a long time to maintain sufficient cell viability and induced the expression of p-glycoprotein. After culturing for 10 months, the results of induced expression were detected by WB. After successful induction, the cells were cultured for one week in adriamycin-free medium. The tumor cells with adjusted concentration were inoculated into the armpit of nude mice. The transplanted tumors were treated with different drugs when they grew to a certain volume. Different doses of different drugs were administrated to blank mice to explore the drug dose not affecting the body weight of the animals, namely the dose to be administrated to treat the animals with transplanted tumors.

neutrophil count = assay: Effect on the neutrophil count at equivalent pharmacodynamic dose; details: rats, continuous administration for two weeks (FIG. 3)
Source text: Multiple doses of different drugs were administrated to the nude mice respectively and the potency of the drugs in inhibiting the transplanted tumor in the nude mice was investigated. Base on the investigation, the equivalent dose of each drug was identified and converted to rat dose before administrated to the rats. That is, by administrating the rats with relatively equivalent pharmacodynamic dose, the effect of the drugs on the neutrophil count was examined. After continuously administration for two weeks, blood samples were collected and neutrophil counts were measured (FIG. 3).

blood neutrophil count = assay: Neutrophil count after compound 17 in combination with docetaxel; assay type: in vivo; details: normal SD rats, after final administration (FIG. 2C)
[2] = system: tumor cells inoculated in nude mice
Procedure: The nude mice inoculated with tumor cells were administrated with blank vehicle, docetaxel, compound 17 as well as the combination drug of docetaxel and compound 17. The tumor volume was measured at different time period after the administration and the change of tumor volume was evaluated. At the same time, the change of body weight of the nude mice was examined to evaluate the antitumor effect and the toxicity degree of the drug. In addition, based on the above administration and grouping methods, the blood neutrophil count level for normal SD rats was measured before administration and after the final administration to evaluate the influence of the drug on neutrophil counts.

[3] = CCK-8 cytotoxicity IC50, HUVEC; details: human, HUVEC umbilical vein endothelial cells
Procedure: HUVEC human umbilical vein endothelial cell strain (purchased from ScienCell Research Laboratories, Cat #8000, Lot #11233)
(§1) a) The compound was serially diluted with DMSO starting from 0.5 μM, using twice echelon dilution.
(§2) The logarithmic growth phase cells were collected and counted. The cells were re-suspended in complete medium, whose concentration was adjusted according to the test results of the cell density optimization, and then seeded into 96-well plates with 100 μl of the cell suspension to each well. The cells were incubated in a 37° C., 100% relative humidity, 5% CO2 incubator for 24 hours.
(§3) b) The test compound was diluted with the medium to the corresponding action concentrations set up, and added into the cells in the plates at 25 μl/well. The test compound was prepared in 9 final action concentrations, which were obtained by sequentially diluted from 500 nM using twice echelon dilution.
(§4) c) The cells were incubated in a 37° C., 100% relative humidity, 5% CO2 incubator for 72 hours.
(§5) d) The medium was removed from the cells, and a complete medium containing 10% CCK-8 was added and incubated in a 37° C. incubator for 1-4 hours.
(§6) e) After gentle shaking, the absorbance at 450 nm of the sample was measured on a SpectraMax M5 Microplate Reader, and the inhibition ratio was calculated using the absorbance at 650 nm as reference.
(§7) The inhibition ratio of the drug on tumor cell growth was calculated as follows: tumor cell growth inhibition %=[(Ac−As)/(Ac−Ab)]×100%
(§8) The IC50 curve was fitted and the IC50 value was calculated using the software Graphpad Prism 5 and using the calculation formula log(inhibitor) vs. normalized response-variable slope or log(inhibitor) vs. response-variable slope.

[4] = system: HT-1080 human fibrosarcoma cell strain; assay: CCK-8 cytotoxicity IC50, HT-1080; details: HT-1080, 72 h, read-out: cytotoxicity IC50
Procedure: (§9) To test the cytotoxic IC50 values of 14 candidate compounds against 5 cell strains (MDA-MB-231, HT-1080, AGS, A-673 & HUVEC) using a CCK-8 test kit.
as §1, §2, §3, §4, §5, §6, §7, §8

tubulin in HuVEC cells = assay: Action on microtubule function, α-tubulin staining in HuVEC; assay type: cell-based, human; details: 2 μM, 30 minutes, vs DMSO control
Source text: Human umbilical vein endothelial cells (HuVEC from Cambrex) were used in this study.

[5] = system: A-673 human rhabdomyosarcoma cell strain; assay: CCK-8 cytotoxicity IC50, A-673; details: A673, 72 h, read-out: cytotoxicity IC50
Procedure: as §9, §1, §2, §3, §4, §5, §6, §7, §8

[6] = system: MDA-MB-231 human breast cancer cell strain; assay: CCK-8 cytotoxicity IC50, MDA-MB-231; details: MDA-MB-231, 72 h, read-out: cytotoxicity IC50
Procedure: as §9
MDA-MB-231 human breast cancer cell strain (purchased from Shanghai Cell Resource Center, Chinese Academy of Sciences)
as §1, §2, §3, §4, §5, §6, §7, §8

[7] = system: AGS human gastric adenocarcinoma cell strain; assay: CCK-8 cytotoxicity IC50, AGS; details: 72 h, read-out: cytotoxicity IC50
Procedure: AGS human gastric adenocarcinoma cell strain (purchased from Shanghai Cell Resource Center, Chinese Academy of Sciences)
as §1, §2, §3, §4, §5, §6, §7, §8

[8] = system: blood flow distribution in tissues and tumor tissue; assay: Blood flow distribution of tissues and tumor; assay type: in vivo, nude mice; details: two hours after administration, same pharmacodynamic dose, vs blank vehicle
Source text: In this example, the effects of drugs on blood flow distribution of different tissues and organs at the same pharmacodynamic dose were simultaneously tested.

[9] = Stability investigation (10-day accelerated stress testing)
Procedure: The tested conditions included 40° C., 60° C., humidity 75%, humidity 92.5%, and light. And under each condition, moisture, purity, maximum single impurity and total impurity of the compound tested were compared to that of day 0.

[10] = Day 10, sample 1 (no stress condition given)

SMILES: CC(=O)O[C@@]12CO[C@@H]1C[C@H](O)[C@@]1(C)C(=O)[C@H](O)C3=C(C)[C@@H](OC(=O)[C@H](O)[C@@H](NC(=O)OC(C)(C)C)c4ccccc4)C[C@@](O)([C@@H](OC(=O)c4ccccc4)[C@H]21)C3(C)C [docetaxel, reference compound]
anti-tumor proliferation effect (tumor weight) [1]: relatively poor pharmacodynamic effect
neutrophil count (neutrophil count): can significantly reduce the neutrophil count
blood neutrophil count (blood neutrophil count): neutrophil count decrease caused by docetaxel
change of body weight (toxicity) ([2]; mouse, in vivo): weight loss of animals caused by the toxicity of docetaxel

SMILES: CC(C)(C)c1[nH]cnc1/C=c1\[nH]c(=O)/c(=C/C=C/c2cccc(C#N)c2)[nH]c1=O [Compound 15]
IC50 at 72 h [3]: 78.6 nM
IC50 [4]: 78.8 nM
cell membrane blebbing (tubulin in HuVEC cells): induced
microtubule depolymerization (tubulin in HuVEC cells): induced
anti-tumor proliferation effect (tumor weight) [1]: can effectively exert anti-tumor proliferation effects
neutrophil count (neutrophil count): had no obvious effect on neutrophils
IC50 [5]: 94.9 nM
IC50 [6]: 123 nM
IC50 [7]: 63.5 nM
distribution of blood flow in tissues except tumor tissues [8]: did not significantly affect the distribution of blood flow in tissues except tumor tissues
intratumoral blood flow distribution [8]: can significantly reduce the intratumoral blood flow distribution

neutrophil count (neutrophil count): had no obvious effect on neutrophils
SMILES: CC(C)(C)c1nc[nH]c1/C=c1\[nH]c(=O)/c(=C/C=C/c2cccc(F)c2)[nH]c1=O [Compound 7]
IC50 at 72 h [3]: 94.9 nM
IC50 [4]: 43.6 nM
cell membrane blebbing (tubulin in HuVEC cells): induced
microtubule depolymerization (tubulin in HuVEC cells): induced
anti-tumor proliferation effect (tumor weight) [1]: can effectively exert anti-tumor proliferation effects
IC50 [5]: 35.4 nM
IC50 [6]: 39.5 nM
IC50 [7]: 43 nM
distribution of blood flow in tissues except tumor tissues [8]: did not significantly affect the distribution of blood flow in tissues except tumor tissues
intratumoral blood flow distribution [8]: can significantly reduce the intratumoral blood flow distribution

SMILES: CC(C)(C)c1[nH]cnc1/C=C1\NC(=O)[C@H](Cc2ccccc2)NC1=O [tert-butyl-phenylahistin, reference compound]
cell membrane blebbing (tubulin in HuVEC cells): induced
microtubule depolymerization (tubulin in HuVEC cells): induced

SMILES: CC(C)(C)c1[nH]cnc1/C=c1\[nH]c(=O)/c(=C/C=C/c2ccc(OC(F)(F)F)cc2)[nH]c1=O [Compound 10]
IC50 at 72 h [3]: 363 nM
IC50 [4]: 224 nM
cell membrane blebbing (tubulin in HuVEC cells): induced
microtubule depolymerization (tubulin in HuVEC cells): induced
anti-tumor proliferation effect (tumor weight) [1]: can effectively exert anti-tumor proliferation effects
neutrophil count (neutrophil count): had no obvious effect on neutrophils
IC50 [5]: 165 nM
IC50 [6]: 105 nM
IC50 [7]: 94.9 nM
distribution of blood flow in tissues except tumor tissues [8]: did not significantly affect the distribution of blood flow in tissues except tumor tissues
intratumoral blood flow distribution [8]: can significantly reduce the intratumoral blood flow distribution

SMILES: COc1ccc(/C=C/C=c2\[nH]c(=O)/c(=C/c3nc[nH]c3C(C)(C)C)[nH]c2=O)cc1 [Compound 12]
IC50 at 72 h [3]: 43.1 nM
IC50 [4]: 136 nM
cell membrane blebbing (tubulin in HuVEC cells): induced
microtubule depolymerization (tubulin in HuVEC cells): induced
anti-tumor proliferation effect (tumor weight) [1]: can effectively exert anti-tumor proliferation effects
neutrophil count (neutrophil count): had no obvious effect on neutrophils
IC50 [5]: 37.3 nM
IC50 [6]: 45.5 nM
IC50 [7]: 35.3 nM
distribution of blood flow in tissues except tumor tissues [8]: did not significantly affect the distribution of blood flow in tissues except tumor tissues
intratumoral blood flow distribution [8]: can significantly reduce the intratumoral blood flow distribution

SMILES: CC(C)(C)c1[nH]cnc1/C=c1\[nH]c(=O)/c(=C/C=C/c2cc(F)ccc2Cl)[nH]c1=O [Compound 17]
IC50 at 72 h [3]: 35 nM
IC50 [4]: 14.6 nM
cell membrane blebbing (tubulin in HuVEC cells): induced
microtubule depolymerization (tubulin in HuVEC cells): induced
anti-tumor proliferation effect (tumor weight) [1]: can effectively exert anti-tumor proliferation effects
stability, overall finding ([9]; 10-day accelerated test: 40° C., 60° C., humidity 75%, humidity 92.5%, light): stable
Content ([9]; Day 0): 99.8%
Maximum single impurity ([9]; Day 0): 0.03 (RRT: 0.31) %
Moisture ([9]; Day 0): 0.1%
Total impurity ([9]; Day 0): 0.06%
Content ([9]; Day 5, 40° C.): 100.9%
Maximum single impurity ([9]; Day 5, 40° C.): 0.02 (RRT: 0.31) %
Moisture ([9]; Day 5, 40° C.): 0.1%
Total impurity ([9]; Day 5, 40° C.): 0.05%
Content ([9]; Day 5, 60° C.): 99.0%
Maximum single impurity ([9]; Day 5, 60° C.): 0.03 (RRT: 0.31) %
Moisture ([9]; Day 5, 60° C.): 0.2%
Total impurity ([9]; Day 5, 60° C.): 0.06%
Content ([9]; Day 5, humidity 75%): 99.5%
Maximum single impurity ([9]; Day 5, humidity 75%): 0.02 (RRT: 0.32) %
Moisture ([9]; Day 5, humidity 75%): 0.2%
Total impurity ([9]; Day 5, humidity 75%): 0.07%
Content ([9]; Day 5, humidity 92.5%): 99.5%
Maximum single impurity ([9]; Day 5, humidity 92.5%): 0.02 (RRT: 0.31) %
Moisture ([9]; Day 5, humidity 92.5%): 0.3%
Total impurity ([9]; Day 5, humidity 92.5%): 0.07%
Content ([9]; Day 5, light): 100.3%
Maximum single impurity ([9]; Day 5, light): 0.04 (RRT: 0.31) %
Moisture ([9]; Day 5, light): 0.1%
Total impurity ([9]; Day 5, light): 0.07%
Content ([9]; Day 10, 40° C.): 100.5%
Maximum single impurity ([9]; Day 10, 40° C.): 0.04 (RRT: 0.31) %
Moisture ([9]; Day 10, 40° C.): 0.1%
Total impurity ([9]; Day 10, 40° C.): 0.07%
Content ([9]; Day 10, 60° C.): 99.7%
Maximum single impurity ([9]; Day 10, 60° C.): 0.03 (RRT: 0.31) %
Moisture ([9]; Day 10, 60° C.): 0.2%
Total impurity ([9]; Day 10, 60° C.): 0.08%
Content ([9]; Day 10, humidity 75%): 99.0%
Maximum single impurity ([9]; Day 10, humidity 75%): 0.04 (RRT: 0.31) %
Moisture ([9]; Day 10, humidity 75%): 0.2%
Total impurity ([9]; Day 10, humidity 75%): 0.11%
Content ([9]; Day 10, humidity 92.5%): 99.4%
Maximum single impurity ([9]; Day 10, humidity 92.5%): 0.03 (RRT: 0.31) %
Moisture ([9]; Day 10, humidity 92.5%): 0.3%
Total impurity ([9]; Day 10, humidity 92.5%): 0.08%
Content ([9]; Day 10, light): 99.6%
Maximum single impurity ([9]; Day 10, light): 0.04 (RRT: 0.31) %
Moisture ([9]; Day 10, light): 0.1%
Total impurity ([9]; Day 10, light): 0.09%
Content [9, 10]: 100.4%
Maximum single impurity [9, 10]: 0.03 (RRT: 0.31) %
Moisture [9, 10]: 0.1%
Total impurity [9, 10]: 0.08%
neutrophil count (neutrophil count): had no obvious effect on neutrophils
IC50 [5]: 7.25 nM
IC50 [6]: 20.4 nM
IC50 [7]: 10.8 nM
inhibition of tumor proliferation (tumor volume) ([2]; nude mice inoculated with tumor cells (FIG. 2A)): can effectively inhibit the proliferation of tumor in vivo
distribution of blood flow in tissues except tumor tissues [8]: did not significantly affect the distribution of blood flow in tissues except tumor tissues
intratumoral blood flow distribution [8]: can significantly reduce the intratumoral blood flow distribution

SMILES: CC(=O)O[C@H]1C(=O)[C@@]2(C)[C@H]([C@H](OC(=O)c3ccccc3)[C@]3(O)C[C@H](OC(=O)[C@H](O)[C@@H](NC(=O)c4ccccc4)c4ccccc4)C(C)=C1C3(C)C)[C@]1(OC(C)=O)CO[C@@H]1C[C@@H]2O [Paclitaxel, paclitaxel, reference compound]
microtubule depolymerization (tubulin in HuVEC cells): did not induce microtubule depolymerization
